Source: patent US20220356174A1, “PYRIDIN-2-ONE COMPOUNDS USEFUL AS SMARCA2 ANTAGONISTS” (Epizyme, Inc., priority 2018, published 2022)
Like-named read-outs stand apart in the source and are kept apart here. Each block holds one molecule with its values, some of them ahead of it.

How the values were obtained:
[1] = biological target: T1, FL-SMARCA2 (full-length human SMARCA2 isoform 1) (Homo sapiens, UniProt P51531); experiment: SMARCA2 ATPase activity assay (ADP-Glo, chicken mononucleosome substrate); type: biochemical; conditions: ATP 250 uM
T1 construct: FLAG tag (YKDDDDK) (C); made in house; host or cells: Sf21 insect cells (baculovirus, pFastBacI)
T1 sequence (P51531 with tags, fused parts or gaps): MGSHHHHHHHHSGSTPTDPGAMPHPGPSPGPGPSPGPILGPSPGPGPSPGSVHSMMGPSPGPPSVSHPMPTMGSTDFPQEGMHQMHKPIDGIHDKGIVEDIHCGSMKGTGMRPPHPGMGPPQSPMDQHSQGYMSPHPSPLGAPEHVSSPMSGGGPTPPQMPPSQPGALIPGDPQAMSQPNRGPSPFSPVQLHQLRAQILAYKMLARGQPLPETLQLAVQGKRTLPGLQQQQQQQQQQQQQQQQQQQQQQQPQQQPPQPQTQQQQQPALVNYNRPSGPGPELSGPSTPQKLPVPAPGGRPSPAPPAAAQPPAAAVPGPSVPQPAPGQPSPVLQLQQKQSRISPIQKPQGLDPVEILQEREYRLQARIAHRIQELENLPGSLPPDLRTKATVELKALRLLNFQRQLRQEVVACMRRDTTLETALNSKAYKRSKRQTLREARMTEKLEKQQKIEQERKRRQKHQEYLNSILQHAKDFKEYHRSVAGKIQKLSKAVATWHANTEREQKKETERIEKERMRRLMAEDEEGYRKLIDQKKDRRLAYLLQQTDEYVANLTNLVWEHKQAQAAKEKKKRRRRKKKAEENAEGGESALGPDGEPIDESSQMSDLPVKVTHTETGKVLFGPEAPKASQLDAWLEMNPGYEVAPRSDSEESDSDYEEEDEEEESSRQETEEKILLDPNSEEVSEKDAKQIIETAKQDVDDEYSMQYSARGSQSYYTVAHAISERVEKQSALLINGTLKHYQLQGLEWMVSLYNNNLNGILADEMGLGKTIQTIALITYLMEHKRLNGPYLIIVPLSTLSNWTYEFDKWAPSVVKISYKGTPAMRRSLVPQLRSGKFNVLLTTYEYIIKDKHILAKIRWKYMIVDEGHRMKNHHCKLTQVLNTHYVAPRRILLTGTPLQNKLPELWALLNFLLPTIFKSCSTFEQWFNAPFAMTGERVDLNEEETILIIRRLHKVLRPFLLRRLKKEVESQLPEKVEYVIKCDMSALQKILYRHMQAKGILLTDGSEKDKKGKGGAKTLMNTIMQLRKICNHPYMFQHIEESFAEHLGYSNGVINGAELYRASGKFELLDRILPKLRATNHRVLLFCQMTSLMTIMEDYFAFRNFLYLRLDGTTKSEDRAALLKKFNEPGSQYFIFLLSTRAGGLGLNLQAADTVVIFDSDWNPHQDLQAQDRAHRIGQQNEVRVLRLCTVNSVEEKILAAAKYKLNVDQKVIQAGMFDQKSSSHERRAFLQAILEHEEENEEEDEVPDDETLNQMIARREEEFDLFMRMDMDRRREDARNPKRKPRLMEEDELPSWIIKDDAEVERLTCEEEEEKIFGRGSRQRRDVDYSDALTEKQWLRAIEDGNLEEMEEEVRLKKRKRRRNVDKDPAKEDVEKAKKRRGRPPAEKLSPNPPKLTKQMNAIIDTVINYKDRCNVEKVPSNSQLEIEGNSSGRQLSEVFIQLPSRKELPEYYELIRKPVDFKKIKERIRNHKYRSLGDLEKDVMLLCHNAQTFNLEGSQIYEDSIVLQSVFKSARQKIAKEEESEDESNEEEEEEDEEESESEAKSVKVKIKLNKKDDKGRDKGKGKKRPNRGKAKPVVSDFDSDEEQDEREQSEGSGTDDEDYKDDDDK
Text: Molecular Biology: Full-length human SMARCA2 isoform 1 (P51531) transcript clone was amplified from a cDNA library incorporating an N-terminal HIS tag ([…]) fused directly to Ser2 of SMARCA2 and a C-FLAG tag (YKDDDDK) fused directly to Glu1590 of SMARCA2. The amplified gene was subcloned into pFastBacI (Life Technologies).
Protein Expression: Recombinant baculovirus were generated and protein over-expression was accomplished by infecting exponentially growing Sf21 insect cell culture at 1.24×10^6 cell/ml with an MOI of 0.1. Infections were carried out for 76 hours, harvested by centrifugation, and stored at −80° C. for purification.
Expressed full-length SMARCA2 was purified from cell paste by FLAG affinity chromatography followed by anion exchange chromatography. The protein was dialyzed into a storage buffer containing 25 mM HEPES, 300 mM KCl, 10% Glycerol, pH 7.9, 1 mM TCEP and 0.01% Tween-20. The purity of the protein was measured as 74% using micro-capillary based gel electrophoresis.

FL-SMARCA4 = FL-SMARCA4 (Homo sapiens, UniProt P51532); experiment: SMARCA4 ATPase activity assay (ADP-Glo, chicken mononucleosome substrate)
FL-SMARCA4, sequence (P51532 whole entry): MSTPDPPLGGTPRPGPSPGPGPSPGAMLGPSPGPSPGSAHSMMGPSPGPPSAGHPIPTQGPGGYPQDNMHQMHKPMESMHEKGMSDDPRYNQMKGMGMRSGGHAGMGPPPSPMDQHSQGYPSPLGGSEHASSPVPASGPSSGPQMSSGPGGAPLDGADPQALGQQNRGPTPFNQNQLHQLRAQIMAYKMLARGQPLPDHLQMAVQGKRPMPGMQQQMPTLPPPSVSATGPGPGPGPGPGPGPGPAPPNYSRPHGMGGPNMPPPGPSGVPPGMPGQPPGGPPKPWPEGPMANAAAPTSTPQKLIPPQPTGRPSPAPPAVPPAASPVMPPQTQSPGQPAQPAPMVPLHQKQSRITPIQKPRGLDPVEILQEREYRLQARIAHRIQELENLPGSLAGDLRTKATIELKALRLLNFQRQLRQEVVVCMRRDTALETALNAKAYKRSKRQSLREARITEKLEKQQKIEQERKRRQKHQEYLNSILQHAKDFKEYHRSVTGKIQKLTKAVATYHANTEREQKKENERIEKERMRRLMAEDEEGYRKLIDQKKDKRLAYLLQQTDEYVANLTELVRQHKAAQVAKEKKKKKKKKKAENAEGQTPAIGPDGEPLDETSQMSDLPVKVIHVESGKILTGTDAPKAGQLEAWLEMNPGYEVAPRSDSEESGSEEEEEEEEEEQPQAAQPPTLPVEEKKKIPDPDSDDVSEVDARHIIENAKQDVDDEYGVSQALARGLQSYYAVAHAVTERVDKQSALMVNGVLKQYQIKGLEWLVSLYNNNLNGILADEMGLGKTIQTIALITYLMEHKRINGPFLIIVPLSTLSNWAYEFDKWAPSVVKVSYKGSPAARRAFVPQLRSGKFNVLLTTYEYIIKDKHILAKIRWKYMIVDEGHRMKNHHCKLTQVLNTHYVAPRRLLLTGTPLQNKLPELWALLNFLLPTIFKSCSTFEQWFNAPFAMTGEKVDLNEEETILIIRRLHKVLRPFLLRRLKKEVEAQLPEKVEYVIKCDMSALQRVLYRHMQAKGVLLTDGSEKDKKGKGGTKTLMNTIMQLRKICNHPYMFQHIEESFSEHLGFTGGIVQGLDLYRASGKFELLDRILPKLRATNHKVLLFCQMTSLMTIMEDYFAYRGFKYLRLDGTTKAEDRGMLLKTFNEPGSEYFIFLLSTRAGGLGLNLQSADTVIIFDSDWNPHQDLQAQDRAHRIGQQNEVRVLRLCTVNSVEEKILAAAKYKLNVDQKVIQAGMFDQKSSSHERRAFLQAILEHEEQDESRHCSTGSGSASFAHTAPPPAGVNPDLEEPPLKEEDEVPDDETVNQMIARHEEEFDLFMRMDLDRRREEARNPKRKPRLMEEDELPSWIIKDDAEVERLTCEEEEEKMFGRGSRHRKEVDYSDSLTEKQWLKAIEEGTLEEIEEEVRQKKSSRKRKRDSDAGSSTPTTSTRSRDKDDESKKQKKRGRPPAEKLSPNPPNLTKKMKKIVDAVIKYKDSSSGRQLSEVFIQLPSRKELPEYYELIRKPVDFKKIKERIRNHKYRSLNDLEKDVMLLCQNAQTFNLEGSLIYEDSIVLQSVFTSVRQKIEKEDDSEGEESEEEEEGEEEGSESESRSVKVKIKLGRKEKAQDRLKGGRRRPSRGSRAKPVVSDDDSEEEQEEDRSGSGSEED

[2] = Table 3a.1, SMARCA2 5 nM, mononucleosome 10 nM
[3] = FL-SMARCA4 IC50, Table 3a.2, SMARCA4 5 nM, ATP 250 uM, mononucleosome 10 nM
[4] = Table 3b.1, SMARCA2 5 nM, mononucleosome 10 nM
[5] = FL-SMARCA4 IC50, Table 3b.2, SMARCA4 5 nM, ATP 250 uM, mononucleosome 10 nM
[6] = Table 3c.1, ATPase assay, enzyme 5 nM, chicken mononucleosome 10 nM, 30 min preincubation
[7] = FL-SMARCA4 IC>50, Table 3c.2, ATPase assay, enzyme 5 nM, ATP 250 uM, chicken mononucleosome 10 nM, 30 min preincubation
[8] = Table 3d.1, ATPase assay, enzyme 5 nM, chicken mononucleosome 10 nM, 30 min preincubation, read-out: FL-SMARCA2 IC>50
[9] = Table 3.1, ATPase assay, enzyme 5 nM, chicken mononucleosome 10 nM, 30 min preincubation
[10] = FL-SMARCA4 IC50, Table 3.2, ATPase assay, enzyme 5 nM, ATP 250 uM, chicken mononucleosome 10 nM, 30 min preincubation

IC50 [1, 2]: > 50 µM | IC50 (FL-SMARCA4; [3]): > 50 µM
Compound: CO[C@@H]1CN[C@H](C(=O)Nc2cc(Br)c(=O)n(C)c2)C1 [Compound 9a]

IC50 [1, 4]: 43.7 µM | IC50 (FL-SMARCA4; [5]): > 50 µM
Compound: CCn1cc(NC(=O)c2ccc(Cl)c(F)c2)ccc1=O [Compound 9b]

IC50 [1, 6]: 2.88 µM | IC50 (FL-SMARCA4; [7]): 7.82 µM
Compound: O=C(Nc1cc(F)c(=O)n(CC(F)F)c1)c1cc(C#CC2CNC2)c(Cl)s1 [Compound 9c]

IC50 [1, 8]: > 50 µM | IC50 (FL-SMARCA4; FL-SMARCA4 IC50): > 50 µM
Compound: CCn1cc(NC(=O)CC2CCOCC2)ccc1=O [Compound 9d]

IC50 [1, 2]: > 50 µM | IC50 (FL-SMARCA4; [3]): > 50 µM
Compound: CO[C@H]1C[C@@H](C(=O)Nc2ccc(=O)n(C)c2)N(C)C1 [Compound 10a]

IC50 [1, 4]: > 50 µM | IC50 (FL-SMARCA4; [5]): > 50 µM
Compound: CCn1cc(NC(=O)c2cccc(Cl)c2F)ccc1=O [Compound 10b]

IC50 [1, 6]: 3.35 µM | IC50 (FL-SMARCA4; [7]): 7.13 µM
Compound: CC(C)(C)OC(=O)N1CC(C#Cc2cc(C(=O)Nc3cc(F)c(=O)n(CC(F)F)c3)sc2Cl)C1 [Compound 10c]

IC50 [1, 2]: > 50 µM
Compound: CCn1cc(NC(=O)c2cnc3ccccn23)ccc1=O [Compound 19a]

IC50 (FL-SMARCA4; FL-SMARCA4 IC50): 1.29 µM
Compound: N[C@H]1CC[C@H](C#Cc2cc(C(=O)Nc3cc(F)c(=O)n(CC(F)F)c3)sc2Cl)CC1 [Compound 66d]

IC50 (FL-SMARCA4; [7]): 11.3 µM
Compound: O=C(O)c1cccc(C#Cc2cc(C(=O)Nc3cc(F)c(=O)n(CC(F)F)c3)ccn2)c1 [Compound 132c]

Continued, molecule first:

Compound: COc1ccc2[nH]c(C(=O)Nc3c[nH]c(=O)c(C)c3)cc2c1 [Compound 8a]
IC50 [1, 2]: > 50 µM | IC50 (FL-SMARCA4; [3]): > 50 µM

Compound: CCn1cc(NC(=O)c2ccc(F)c(Cl)c2)ccc1=O [Compound 8b]
IC50 [1, 4]: > 50 µM | IC50 (FL-SMARCA4; [5]): > 50 µM

Compound: C[S+]([O-])c1cc(NC(=O)c2cc(F)c(Cl)s2)cn(CC(F)F)c1=O (centres unmarked) [Compound 8c]
IC50 [1, 6]: > 50 µM | IC50 (FL-SMARCA4; [7]): > 50 µM

Compound: Cc1cc(=O)n(C)cc1NC(=O)[C@@H]1CNC[C@H]1C(F)(F)F [Compound 8d]
IC50 [1, 8]: > 50 µM | IC50 (FL-SMARCA4; FL-SMARCA4 IC50): > 50 µM

Compound: COCCn1cc(NC(=O)c2cnn(-c3ccccc3C)c2C)ccc1=O [Compound 9]
IC50 [1, 9]: > 50 µM | IC50 (FL-SMARCA4; [10]): > 50 µM

Compound: CCn1cc(NC(=O)c2cc(C(C)C)n(-c3ccccn3)n2)ccc1=O [Compound 10]
IC50 [1, 9]: > 50 µM | IC50 (FL-SMARCA4; [10]): > 50 µM

Compound: CCn1cc(NC(=O)c2cc(C)oc2C)ccc1=O [Compound 23]
IC50 (FL-SMARCA4; [10]): > 50 µM

Compound: CCn1cc(NC(=O)c2cc(C3CC3)on2)ccc1=O [Compound 24]
IC50 (FL-SMARCA4; [10]): > 50 µM

Compound: CCn1cc(NC(=O)c2csc(C(F)(F)F)n2)ccc1=O [Compound 25]
IC50 (FL-SMARCA4; [10]): > 50 µM

Compound: CCn1cc(NC(=O)c2cc(C)n[nH]2)ccc1=O [Compound 27]
IC50 (FL-SMARCA4; [10]): > 50 µM

Compound: CCn1cc(NC(=O)c2cn(C)nc2C(F)F)ccc1=O [Compound 28]
IC50 (FL-SMARCA4; [10]): > 50 µM

Compound: CCn1cc(NC(=O)c2csnn2)ccc1=O [Compound 29]
IC50 (FL-SMARCA4; [10]): > 50 µM

Compound: CCn1cc(NC(=O)c2nc(Br)cs2)ccc1=O [Compound 30]
IC50 (FL-SMARCA4; [10]): > 50 µM

Compound: CCn1cc(NC(=O)c2cn(C)nc2C(F)(F)F)ccc1=O [Compound 31]
IC50 (FL-SMARCA4; [10]): > 50 µM

Compound: CCn1cc(NC(=O)c2snc(Cl)c2Cl)ccc1=O [Compound 34]
IC50 [1, 9]: 28.5 µM

Compound: Cn1c(C(=O)Nc2ccc(=O)n(C3CC3)c2)cc(Cl)c1Cl [Compound 41]
IC50 [1, 9]: > 50 µM

Compound: CCn1c(C(=O)Nc2ccc(=O)n(CC)c2)cc(Cl)c1Cl [Compound 42]
IC50 [1, 9]: 12.6 µM

Compound: CCn1cc(NC(=O)c2cc(Br)cs2)ccc1=O [Compound 45]
IC50 [1, 9]: 43.1 µM

Compound: CCn1cc(NC(=O)c2ccc(I)s2)ccc1=O [Compound 46]
IC50 [1, 9]: 11.1 µM

Compound: CCn1cc(NC(=O)c2ncc(Br)s2)ccc1=O [Compound 49]
IC50 [1, 9]: > 50 µM

Compound: O=C(Nc1ccc(=O)n(-c2ccccc2)c1)c1ccc(Br)s1 [Compound 50]
IC50 [1, 9]: > 50 µM

Compound: CCn1cc(NC(=O)c2cnc(Cl)[nH]2)ccc1=O [Compound 99]
IC50 [1, 9]: > 50 µM

Compound: CCn1cc(NC(=O)c2cc(Cl)n(C)n2)ccc1=O [Compound 100]
IC50 [1, 9]: > 50 µM

Compound: N#Cc1cc(C(=O)Nc2cc(C#N)c(=O)n(CCF)c2)sc1Cl [Compound 321]
IC50 (FL-SMARCA4; [10]): 0.635 µM
